Measured values reported in ChEMBL document CHEMBL1201862, “PubChem BioAssay data set” (2004).
Activity calls are given as the source filed them.

Assays:
[1] = molecular target: T1, Type-1 angiotensin II receptor (Homo sapiens, UniProt P30556); assay: agonist activity at AGTR1 – cell-based, uHTS hits, selectivity assay for APJ receptor agonist project, dose response (AID 488865); assay type: functional;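 also: beta-arrestin recruitment to AT1 measured by enzyme fragment complementation luminescence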
T1 sequence (P30556 whole entry): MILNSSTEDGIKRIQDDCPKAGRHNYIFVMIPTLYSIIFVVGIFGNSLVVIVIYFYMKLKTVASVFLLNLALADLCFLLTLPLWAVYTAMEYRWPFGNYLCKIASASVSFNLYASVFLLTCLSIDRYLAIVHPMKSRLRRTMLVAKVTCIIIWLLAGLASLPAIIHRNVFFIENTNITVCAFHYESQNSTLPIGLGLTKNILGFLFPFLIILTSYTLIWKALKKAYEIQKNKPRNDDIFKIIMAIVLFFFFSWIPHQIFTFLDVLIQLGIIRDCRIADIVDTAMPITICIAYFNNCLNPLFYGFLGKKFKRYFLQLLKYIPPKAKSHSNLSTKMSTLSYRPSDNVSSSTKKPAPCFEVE

[2] = molecular target: T2, Tyrosine-protein phosphatase non-receptor type 7 (Homo sapiens, UniProt P35236); assay: SAR analysis of chemical inhibitors of HePTP using a Fluorescent assay - Set 2. [Related pubchem assays (depositor defined):AID1059, AID1077, AID1661, AID2085, AID521]; assay type: functional
T2 sequence (P35236 whole entry): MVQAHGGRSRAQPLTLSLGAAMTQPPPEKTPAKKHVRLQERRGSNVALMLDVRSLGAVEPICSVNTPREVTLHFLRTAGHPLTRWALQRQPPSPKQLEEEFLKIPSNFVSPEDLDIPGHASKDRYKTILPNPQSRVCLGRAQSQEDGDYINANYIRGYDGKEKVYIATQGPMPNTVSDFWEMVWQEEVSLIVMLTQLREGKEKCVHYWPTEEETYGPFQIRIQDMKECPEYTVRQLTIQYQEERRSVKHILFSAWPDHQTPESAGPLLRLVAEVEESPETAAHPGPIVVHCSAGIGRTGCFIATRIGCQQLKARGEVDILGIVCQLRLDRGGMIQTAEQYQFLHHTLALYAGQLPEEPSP

[3] = molecular target: Dual specificity protein phosphatase 3 (Homo sapiens, UniProt P51452); assay: SAR VHR1 Fluorescent Assay for In Vitro dose response studies Set 2. [Related pubchem assays (depositor defined):AID1654, AID1661, AID1878]; assay type: functional
Dual specificity protein phosphatase 3, sequence (P51452 whole entry): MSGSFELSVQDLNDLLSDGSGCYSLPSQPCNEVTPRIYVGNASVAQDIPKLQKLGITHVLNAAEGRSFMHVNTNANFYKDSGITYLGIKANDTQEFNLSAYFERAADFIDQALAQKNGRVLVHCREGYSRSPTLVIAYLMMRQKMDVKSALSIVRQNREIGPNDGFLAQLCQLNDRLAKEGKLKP

[4] = molecular target: T3, Short transient receptor potential channel 4 (Mus musculus, UniProt Q9QUQ5); assay: potentiation of DAMGO-evoked TRPC4 calcium signal – cell-based, HEK293 TRPC4/mu-opioid, Fluo-4 calcium, EC20 DAMGO, dose response (AID 434941); assay type: functional
T3 sequence (Q9QUQ5 whole entry): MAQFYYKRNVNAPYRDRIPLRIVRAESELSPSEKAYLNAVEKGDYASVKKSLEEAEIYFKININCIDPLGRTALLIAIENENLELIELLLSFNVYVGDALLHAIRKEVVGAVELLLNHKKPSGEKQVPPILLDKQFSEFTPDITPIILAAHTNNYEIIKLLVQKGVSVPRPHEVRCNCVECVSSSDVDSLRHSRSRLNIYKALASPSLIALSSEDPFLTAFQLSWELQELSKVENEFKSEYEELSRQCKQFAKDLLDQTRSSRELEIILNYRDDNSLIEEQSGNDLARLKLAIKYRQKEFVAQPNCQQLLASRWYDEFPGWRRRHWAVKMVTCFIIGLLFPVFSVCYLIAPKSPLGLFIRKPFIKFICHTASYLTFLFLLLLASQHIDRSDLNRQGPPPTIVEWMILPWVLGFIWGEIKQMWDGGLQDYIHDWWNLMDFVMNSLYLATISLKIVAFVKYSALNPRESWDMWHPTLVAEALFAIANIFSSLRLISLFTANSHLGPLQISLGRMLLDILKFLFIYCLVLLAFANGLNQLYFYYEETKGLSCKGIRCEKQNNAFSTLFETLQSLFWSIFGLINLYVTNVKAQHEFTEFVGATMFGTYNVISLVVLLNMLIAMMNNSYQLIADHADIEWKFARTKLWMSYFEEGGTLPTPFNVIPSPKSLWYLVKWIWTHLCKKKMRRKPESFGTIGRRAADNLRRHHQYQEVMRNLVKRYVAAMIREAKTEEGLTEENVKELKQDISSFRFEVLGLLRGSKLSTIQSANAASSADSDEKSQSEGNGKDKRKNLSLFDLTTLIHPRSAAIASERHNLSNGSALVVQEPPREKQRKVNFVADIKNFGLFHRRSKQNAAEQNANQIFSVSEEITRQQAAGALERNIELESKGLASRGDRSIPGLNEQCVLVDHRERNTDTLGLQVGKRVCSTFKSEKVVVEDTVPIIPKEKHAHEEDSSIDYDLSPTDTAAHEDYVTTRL

[5] = test system: Streptococcus sp. 'group A'; assay: Streptococcus pyogenes SK(-)GAS viability under kanamycin – luminescence, BacTiterGlo, confirmation, counter-screen for streptokinase expression inhibitor project, dose response (AID 1900); assay type: functional, organism-based
[6] = test system: Streptococcus; assay: GAS UMAA2166 growth inhibition – luminescence, BacTiterGlo, counter-screen for streptokinase expression inhibitor project, dose response (AID 1915); assay type: functional, organism-based;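 also: potency for reduction of bacterial viability or growth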
[7] = molecular target: T4, Protein skinhead-1 (Caenorhabditis elegans, UniProt P34707); assay type: functional
T4 sequence (P34707 whole entry): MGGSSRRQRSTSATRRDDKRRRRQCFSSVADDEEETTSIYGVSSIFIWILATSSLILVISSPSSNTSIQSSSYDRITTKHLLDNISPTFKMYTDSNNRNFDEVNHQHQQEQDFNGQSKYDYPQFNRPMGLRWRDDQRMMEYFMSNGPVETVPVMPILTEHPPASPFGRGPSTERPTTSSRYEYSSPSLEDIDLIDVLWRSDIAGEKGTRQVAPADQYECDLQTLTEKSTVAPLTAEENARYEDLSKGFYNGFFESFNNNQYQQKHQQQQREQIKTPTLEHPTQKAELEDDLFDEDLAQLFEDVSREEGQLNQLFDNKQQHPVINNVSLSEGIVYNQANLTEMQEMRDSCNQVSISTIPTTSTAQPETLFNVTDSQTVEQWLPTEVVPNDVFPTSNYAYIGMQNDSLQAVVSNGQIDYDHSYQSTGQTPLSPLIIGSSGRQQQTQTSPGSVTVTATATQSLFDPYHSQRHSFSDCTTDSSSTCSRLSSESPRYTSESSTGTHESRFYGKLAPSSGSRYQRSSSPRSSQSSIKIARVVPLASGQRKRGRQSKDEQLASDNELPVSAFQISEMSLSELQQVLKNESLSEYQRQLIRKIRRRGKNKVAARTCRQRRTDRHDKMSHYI

[8] = molecular target: T3, Short transient receptor potential channel 4; assay: calcium entry via TRPC4 opening agents – cell-based, HEK293 TRPC4/mu-opioid, Fluo-4 calcium, dose response (AID 434937); assay type: functional
[9] = molecular target: T5, Streptokinase A (Streptococcus pyogenes serotype M1, UniProt P10520); assay: viability-normalized secreted streptokinase activity reduction – plasminogen activation absorbance, OD405, dose response (AID 1914); assay type: functional, Streptococcus pyogenes M1 GAS;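 also: secreted streptokinase activity via plasminogen activation per viability signal from cell pellet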
T5 sequence (P10520 whole entry): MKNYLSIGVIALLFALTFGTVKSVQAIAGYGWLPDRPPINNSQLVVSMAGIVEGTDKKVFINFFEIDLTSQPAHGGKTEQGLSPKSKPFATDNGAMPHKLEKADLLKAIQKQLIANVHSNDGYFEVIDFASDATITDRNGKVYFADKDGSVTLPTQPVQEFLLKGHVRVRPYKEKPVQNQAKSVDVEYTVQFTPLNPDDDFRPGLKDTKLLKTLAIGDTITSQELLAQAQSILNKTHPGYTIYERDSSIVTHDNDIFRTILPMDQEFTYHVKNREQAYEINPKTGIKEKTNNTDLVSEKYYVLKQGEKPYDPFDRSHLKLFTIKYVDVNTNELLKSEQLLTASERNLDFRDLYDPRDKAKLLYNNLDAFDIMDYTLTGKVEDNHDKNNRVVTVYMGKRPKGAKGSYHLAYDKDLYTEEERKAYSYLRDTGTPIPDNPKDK

[10] = molecular target: T6, Coagulation factor XII (Homo sapiens, UniProt P00748); assay: activated coagulation factor XII inhibitor potency, concentration-effect curve, cell-free (AID 716); assay type: functional
T6 sequence (P00748 whole entry): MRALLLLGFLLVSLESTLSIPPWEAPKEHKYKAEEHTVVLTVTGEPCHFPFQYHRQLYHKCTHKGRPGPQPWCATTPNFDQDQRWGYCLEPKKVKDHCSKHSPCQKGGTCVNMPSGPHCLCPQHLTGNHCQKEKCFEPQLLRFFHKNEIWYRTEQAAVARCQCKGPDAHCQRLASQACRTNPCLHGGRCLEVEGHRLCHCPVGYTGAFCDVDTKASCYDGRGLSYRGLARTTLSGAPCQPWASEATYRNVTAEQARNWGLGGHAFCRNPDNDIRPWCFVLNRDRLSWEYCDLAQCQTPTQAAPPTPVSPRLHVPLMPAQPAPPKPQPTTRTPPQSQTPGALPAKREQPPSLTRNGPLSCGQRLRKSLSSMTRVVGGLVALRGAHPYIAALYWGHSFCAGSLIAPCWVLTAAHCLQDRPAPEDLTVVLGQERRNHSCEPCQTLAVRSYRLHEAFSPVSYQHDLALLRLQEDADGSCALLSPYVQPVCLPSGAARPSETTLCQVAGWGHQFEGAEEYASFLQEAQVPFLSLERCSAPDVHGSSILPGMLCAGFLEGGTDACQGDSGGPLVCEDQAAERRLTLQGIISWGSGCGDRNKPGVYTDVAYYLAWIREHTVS

[11] = molecular target: T7, Kappa-type opioid receptor (Homo sapiens, UniProt P41145); assay: SAR analysis of small molecule antagonists of the kappa opioid receptor via a luminescent beta-arrestin assay - Set 3. [Related pubchem assays (depositor defined):AID1777, AID1778, AID1785, AID1786, AID1966, AID2133, AID2136, AID2285, AID2495]; assay type: functional
T7 sequence (P41145 whole entry): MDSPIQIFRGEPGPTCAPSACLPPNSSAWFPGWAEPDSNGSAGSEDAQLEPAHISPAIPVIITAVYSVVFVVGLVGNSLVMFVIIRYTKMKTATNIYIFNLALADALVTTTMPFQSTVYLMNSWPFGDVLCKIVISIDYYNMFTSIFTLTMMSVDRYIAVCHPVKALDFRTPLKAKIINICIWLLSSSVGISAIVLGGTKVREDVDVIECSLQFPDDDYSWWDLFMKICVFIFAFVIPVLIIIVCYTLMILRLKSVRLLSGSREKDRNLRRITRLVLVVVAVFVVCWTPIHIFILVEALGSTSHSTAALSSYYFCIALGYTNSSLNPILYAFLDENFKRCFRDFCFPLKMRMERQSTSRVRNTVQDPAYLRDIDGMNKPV

[12] = molecular target: T7, Kappa-type opioid receptor; assay: SAR analysis of Antagonists of the Kappa Opioid Receptor (KOR) using an Image-Based Assay - Set 3. [Related pubchem assays (depositor defined):AID1777, AID1785]; assay type: functional
[13] = molecular target: Delta-type opioid receptor (Homo sapiens, UniProt P41143); assay: SAR Analysis of Antagonists of the DOR Receptor using an Image-Based Assay - Set 3. [Related pubchem assays (depositor defined):AID1777, AID1785]; assay type: functional;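 also: U2OS cells expressing DOR1 and beta-arrestin GFP stimulated with 100 nM SNC80; imaging of GFP-tagged beta-arrestin moving into spots after receptor activation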
Delta-type opioid receptor, sequence (P41143 whole entry): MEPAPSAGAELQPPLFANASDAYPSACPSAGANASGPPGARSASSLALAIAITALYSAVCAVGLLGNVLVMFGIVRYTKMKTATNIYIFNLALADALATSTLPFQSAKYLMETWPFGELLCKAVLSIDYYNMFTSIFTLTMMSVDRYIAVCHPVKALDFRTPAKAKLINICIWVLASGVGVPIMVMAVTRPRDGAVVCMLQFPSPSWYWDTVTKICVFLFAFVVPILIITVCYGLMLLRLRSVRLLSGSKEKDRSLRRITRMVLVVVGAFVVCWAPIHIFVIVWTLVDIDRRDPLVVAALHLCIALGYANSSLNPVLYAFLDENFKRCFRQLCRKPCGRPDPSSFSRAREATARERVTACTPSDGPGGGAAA

[14] = molecular target: Mu-type opioid receptor (Homo sapiens, UniProt P35372); assay: SAR Analysis of Antagonists of the MOR Receptor using an Image-Based Assay - Set 3. [Related pubchem assays (depositor defined):AID1777, AID1785, AID1786, AID1966, AID2133, AID2136, AID2284, AID2285, AID2420]; assay type: functional
Mu-type opioid receptor, sequence (P35372 whole entry): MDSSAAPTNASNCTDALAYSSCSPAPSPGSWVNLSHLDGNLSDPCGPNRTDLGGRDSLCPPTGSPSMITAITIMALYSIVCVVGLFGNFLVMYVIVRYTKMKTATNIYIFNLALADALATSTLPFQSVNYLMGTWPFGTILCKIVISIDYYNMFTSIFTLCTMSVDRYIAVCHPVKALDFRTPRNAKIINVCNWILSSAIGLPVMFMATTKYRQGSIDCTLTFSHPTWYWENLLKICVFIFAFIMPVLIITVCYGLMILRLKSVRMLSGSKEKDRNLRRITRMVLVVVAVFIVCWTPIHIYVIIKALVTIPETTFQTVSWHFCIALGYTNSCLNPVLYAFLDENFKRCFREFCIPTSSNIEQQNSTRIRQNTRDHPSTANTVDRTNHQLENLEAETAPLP

[15] = test system: T-cell; assay: loss of vesicle association with mouse CD8+ T cells – mouse 2C CD8+ T cells, flow cytometry, dose response (AID 485284); assay type: functional
[16] = test system: BJ; assay: cells; assay type: functional, cell-based; settings: Homo sapiens
[17] = HEK-293T viability loss after treatment – luminescence, T-cell screen hits, cytotoxicity control for TCR NF-kB inhibitor project, dose response (AID 489026); assay type: functional, cell-based;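 also: cells exposed to compound about 14 hours before the viability readout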
[18] = test system: BJ; assay: BJ-TERT-LT-ST fibroblast viability loss – cell-based, RAS-independent, luminescence, dose response (AID 1935); assay type: functional; settings: Homo sapiens;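 also: BJ fibroblasts immortalized with TERT plus LT and ST oncogenes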
[19] = molecular target: DNA dC->dU-editing enzyme APOBEC-3G (Homo sapiens, UniProt Q9HC16); assay type: functional;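 also: Dose-response counterscreen measuring inhibition of APOBEC3G DNA deaminase activity, run while confirming APOBEC3A inhibitors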
DNA dC->dU-editing enzyme APOBEC-3G, sequence (Q9HC16 whole entry): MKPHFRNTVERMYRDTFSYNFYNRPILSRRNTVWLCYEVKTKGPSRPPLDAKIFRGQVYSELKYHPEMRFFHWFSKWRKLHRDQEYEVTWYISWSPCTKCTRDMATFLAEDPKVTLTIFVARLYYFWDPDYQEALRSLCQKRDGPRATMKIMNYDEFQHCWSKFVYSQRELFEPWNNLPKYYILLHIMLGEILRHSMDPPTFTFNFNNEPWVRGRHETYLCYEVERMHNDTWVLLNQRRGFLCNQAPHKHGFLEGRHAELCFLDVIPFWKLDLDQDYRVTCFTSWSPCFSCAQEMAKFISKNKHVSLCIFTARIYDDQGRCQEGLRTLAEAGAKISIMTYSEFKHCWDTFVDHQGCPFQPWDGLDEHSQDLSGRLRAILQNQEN

[20] = test system: BJ; assay: BJ-TERT fibroblast viability loss – cell-based, RAS-independent, luminescence, dose response (AID 1933); assay type: functional; settings: Homo sapiens
[21] = DRD fibroblast viability loss – cell-based, non-viral oncogenic, luminescence, dose response (AID 1934); assay type: functional; settings: Homo sapiens
[22] = microbe, parasite or virus in culture; assay type: functional; settings: Mycobacterium tuberculosis
[23] = molecular target: FAD-linked sulfhydryl oxidase ALR (Homo sapiens, UniProt P55789); assay: ALR-catalysed DTT oxidation blockers – biochemical, H2O2 detection, luminescence, cherry-pick, dose response (AID 493248)
FAD-linked sulfhydryl oxidase ALR, sequence (P55789 whole entry): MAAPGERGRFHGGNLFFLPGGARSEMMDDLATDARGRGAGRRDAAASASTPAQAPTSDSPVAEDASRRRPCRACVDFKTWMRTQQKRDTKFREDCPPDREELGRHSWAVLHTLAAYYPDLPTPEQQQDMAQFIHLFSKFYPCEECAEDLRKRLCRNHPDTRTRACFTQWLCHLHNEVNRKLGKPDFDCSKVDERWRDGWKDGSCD

[24] = molecular target: DNA dC->dU-editing enzyme APOBEC-3A (Homo sapiens, UniProt P31941); assay: Dose Response confirmation of small molecule APOBEC3A DNA Deaminase Inhibitors via a fluorescence-based single-stranded DNA deaminase assay. [Related pubchem assays (depositor defined):AID493011, AID493024]; assay type: functional
DNA dC->dU-editing enzyme APOBEC-3A, sequence (P31941 whole entry): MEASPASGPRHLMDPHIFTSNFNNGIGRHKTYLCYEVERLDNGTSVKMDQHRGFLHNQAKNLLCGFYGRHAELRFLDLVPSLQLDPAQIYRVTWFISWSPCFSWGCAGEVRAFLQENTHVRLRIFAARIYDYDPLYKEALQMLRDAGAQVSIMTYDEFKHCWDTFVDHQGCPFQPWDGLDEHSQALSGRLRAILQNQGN

With CC1(OC(=O)C2CCCC2)C(=O)C=C2C=C(c3ccsc3)N(C3CCCC3)C=C2C1=O (stereo not given) the EC50 [1] was > 100 µM (inactive).
For C=CCn1c(N)c(C(=O)N2CCN(C)CC2)sc1=S, the IC50 [2] was 77.7 µM (active) and the IC50 [3] was 61.2 µM (active).
For COc1cc(/C=C2/SC(=S)N(Cc3ccccc3)C2=O)cc(Cl)c1O, the EC50 [4] was 1.5 µM (active), the EC50 [5] was 5.2 µM (active) and the EC50 [6] was 5.86 µM (active). The IC50 [7] was > 100 µM (inactive), the EC50 [8] was 5.31 µM (active) and the EC50 [9] was > 150 µM (not active).
In the case of CCC(c1nnnn1Cc1ccc2c(c1)OCO2)N1CCN(c2ccc(F)cc2)CC1 (stereo not given), the IC50 [10] was > 50 µM (inactive) and the IC50 [7] was > 100 µM (inactive).
With Cc1ccc(S(=O)(=O)NCc2ccc(C(=O)NCCN(Cc3ccccc3)Cc3ccccc3)cc2)cc1 the IC50 [11] was 16.2 µM (inactive), the IC50 [12] was 7.47 µM (active) and the IC50 [13] was > 32 µM (inactive). The IC50 [14] was > 32 µM (inactive).
In the case of O=C(Cn1cc(C(F)(F)F)cc(Cl)c1=O)NCCc1ccc(Cl)cc1Cl, the EC50 [15] was 7.63 µM (active).
In the case of CC(C)CC[n+]1ccccc1C=Cc1ccc(N(C)C)cc1, the EC50 [16] was 15.5 µM (active), the IC50 [17] was > 80 µM (inactive) and the EC50 [18] was > 150 µM (inconclusive). The IC50 [19] was 19.3 µM (active), the EC50 [20] was 3.6 µM (active) and the EC50 [21] was 22.8 µM (inconclusive). The CC50 [22] was > 40 µM (active), the AC50 [23] was 1.36 µM (active) and the IC50 [24] was 6.84 µM (active).
